pIC50: −log10 of the molar value.
System: 349418-098-R-PDC complex spheroid viability
Assay: Anticancer human tumor 349418-098-R-PDC patient-derived lung adenocarcinoma cell line growth inhibition
Details: for pIC50: curve of first compound; for viability, T/C: stronger effect = lower value; active means viability on the fitted dose curve at most 10% of control; inactive means the rest
Text: Multicellular complex tumor spheroid response to LSD1 Inhibitor Iadademstat in combination with a variety of drugs and investigational agents in selected tumor cell lines
The current study was undertaken to assess response to LSD1 inhibitors in combination with standard-of-care drugs and investigational agents in solid tumor complex spheroid models as well as in the K-562 leukemia. Complex spheroids include a stromal component modeled by human endothelial cells (HUVEC) and fibroblasts modeled by human mesenchymal stem cells (MSCs). The concentration ranges selected for each drug and investigational agent were based upon clinically achievable concentrations if the clinical Cmax of the agent was known.
Compounds. The drugs and investigational agents used in this study are listed on Table 1. All of the agents used, including staurosporine (NSC755774) and gemcitabine (NSC613327), were obtained from the Developmental Therapeutics Program, NCI. FDA-approved anticancer drugs are available from the NCI at http://dtp.nci.nih.gov/branches/dscb/oncology_drugset_explanation.html. Drugs and investigational agents were >95% pure by proton nuclear magnetic resonance (NMR) and liquid chromatography/mass spectrometry (LC/MS). Stock solutions were prepared at 400x in DMSO, stored at -70 degrees C, and diluted in fresh medium prior to their use. The final concentration of DMSO in cell culture wells never exceeded 0.25% (v/v). The FDA-approved anticancer drug set is available from the Developmental Therapeutics Program at https://dtp.cancer.gov/organization/dscb/obtaining/available_plates.htm. All drugs and investigational agents were tested over a range starting from a high concentration at or near the clinical Cmax and decreasing in half-log increments. If the clinical Cmax for an agent had not been determined, the highest concentration tested was 10 microM.
Cell Lines. The patient-derived cancer cell (PDC) lines: 292921-168-R-J2-PDC, K24384-001-R-PDC, and 521955-158-R2-J5-PDC pancreatic carcinomas, 556581-035-R-J1 ovarian carcinoma, 324938-238-R-J1-PDC, 855422-203-R-J1-PDC and 883617-216-R-J1-PDC urothelial bladder carcinomas, 743489-274-T-PDC renal cell carcinoma, 138582-R-J1 Merkel cell tumor, K60290-347-R-J1 and K57222-313-R-J1-PDC glioblastomas, 653999-131-R-J2-PDC, LG0703-F948-PDC, and 349418-098-R-PDC non-small cell lung carcinomas, 885512-296-R-J2-PDC, 171881-019-R-J1-PDC breast carcinomas and 186277-243-T-J2-PDC and 233499-124-R-J2-PDC colon carcinomas were obtained from the NCI Patient-Derived Models Repository (PDMR, https://pdmr.cancer.gov). The established cell lines NCI/ADR-RES (RRID:CVCL_14520 and OVCAR-5 (RRID:CVCL_1628) ovarian carcinomas, 786-O (RRID:CVCL_1051) and A498 (RRID:CVCL_A498) renal cell carcinoma, NCI-H211 (ATCC, cat. CRL-5824; RRID:CVCL_1529), NCI-H196 (ATCC, cat. CRL-5823, RRID:CVCL_1509), SW 1271 (ATCC, cat. CRL-2177, RRID:CVCL_1716) and NCI-H1876 (ATCC, cat. CRL-5902, RRID:CVCL_1503) small cell lung carcinomas, MDA-MB-231 (RRID:CVCL_0062) and MDA-MB-468 (RRID:CVCL_0419)breast carcinomas (10-12). Pooled donor human umbilical vein endothelial cells (HUVEC, Lonza, cat. CC-2519) and human mesenchymal stem cells (hMSC, Lonza, cat. PT-2501) were purchased from Lonza (Walkersville, MD).
Cell Culture. All cells were maintained in an incubator at 37 degrees C and 5% CO2 with 95% humidity. The PDC lines were cultured according to standard operating procedures established by the NCI PDMR (https://pdmr.cancer.gov). Briefly all PDCs were thawed and cultured in Matrigel-coated flasks prepared with a working solution of 1X Ham's F-12 nutrient mix, without supplementation (Invitrogen, Waltham, MA, cat. 11765054), 100 U/mL penicillin-streptomycin (Invitrogen, cat. 15140122), and 2.5% Matrigel (Corning Inc., Corning, NY, cat. 354248) for the first three passages. […]

[1] = second compound 0.1 µM, first compound 0.0316 µM
[2] = second compound 0.1 µM, first compound 0.1 µM
[3] = second compound 0.1 µM, first compound 0.316 µM
[4] = second compound 0.1 µM, first compound 1 µM
[5] = second compound 0.1 µM, first compound 3.16 µM
[6] = second compound 0.1 µM, first compound 10 µM
[7] = second compound 0.316 µM, first compound 0.0316 µM
[8] = second compound 0.316 µM, first compound 0.1 µM
[9] = second compound 0.316 µM, first compound 0.316 µM
[10] = second compound 0.316 µM, first compound 1 µM
[11] = second compound 0.316 µM, first compound 3.16 µM
[12] = second compound 0.316 µM, first compound 10 µM
[13] = second compound 1 µM, first compound 0.0316 µM
[14] = second compound 1 µM, first compound 0.1 µM
[15] = second compound 1 µM, first compound 0.316 µM
[16] = second compound 1 µM, first compound 1 µM
[17] = second compound 1 µM, first compound 3.16 µM
[18] = second compound 1 µM, first compound 10 µM
[19] = second compound 3.16 µM, first compound 0.0316 µM
[20] = second compound 3.16 µM, first compound 0.1 µM
[21] = second compound 3.16 µM, first compound 0.316 µM
[22] = second compound 3.16 µM, first compound 1 µM
[23] = second compound 3.16 µM, first compound 3.16 µM
[24] = second compound 3.16 µM, first compound 10 µM
[25] = second compound 10 µM, first compound 0.0316 µM
[26] = second compound 10 µM, first compound 0.1 µM
[27] = second compound 10 µM, first compound 0.316 µM
[28] = second compound 10 µM, first compound 1 µM
[29] = second compound 10 µM, first compound 3.16 µM
[30] = second compound 10 µM, first compound 10 µM
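Further: spheroids exposed to agents for seven days before readout.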

CC1(C)CCC(CN2CCN(c3ccc(C(=O)NS(=O)(=O)c4ccc(NCC5CCOCC5)c([N+](=O)[O-])c4)c(Oc4cnc5[nH]ccc5c4)c3)CC2)=C(c2ccc(Cl)cc2)C1 + NC1CC1c1ccc(-c2cccc(O)c2)cc1
5.69: pIC50 (second compound 1 µM) | pIC50 (second compound 3.16 µM)
5.73: pIC50 (second compound 0.1 µM) | pIC50 (second compound 0.316 µM)
active: viability, T/C [6] 0.38% | viability, T/C [12] 0.15% | viability, T/C [18] 0.17% | viability, T/C [24] 0.16% | viability, T/C [30] 0.58%
5.77: pIC50 (second compound 10 µM)
inactive: viability, T/C [1] 111% | viability, T/C [2] 106% | viability, T/C [3] 104% | viability, T/C [4] 80.5% | viability, T/C [5] 23.9% | viability, T/C [7] 113% | viability, T/C [8] 111% | viability, T/C [9] 108% | viability, T/C [10] 82.5% | viability, T/C [11] 22.9% | viability, T/C [13] 119% | viability, T/C [14] 113% | viability, T/C [15] 108% | viability, T/C [16] 94.1% | viability, T/C [17] 22.5% | viability, T/C [19] 118% | viability, T/C [20] 109% | viability, T/C [21] 112% | viability, T/C [22] 95.2% | viability, T/C [23] 21.9% | viability, T/C [25] 96.3% | viability, T/C [26] 98.9% | viability, T/C [27] 93.2% | viability, T/C [28] 83.7% | viability, T/C [29] 10.5%

CC(C)CC(NC(=O)CNC(=O)c1cc(Cl)ccc1Cl)B1OC(=O)CC(CC(=O)O)(C(=O)O)O1 (stereo not given) + NC1CC1c1ccc(-c2cccc(O)c2)cc1
9.19: pIC50 (second compound 10 µM)
9.10: pIC50 (second compound 1 µM)
9.08: pIC50 (second compound 3.16 µM)
active: viability, T/C (second compound 0.1 µM, first compound 0.00316 µM) 5.55% | viability, T/C (second compound 0.1 µM, first compound 0.01 µM) 2.78% | viability, T/C [1] 1.26% | viability, T/C [2] 1.31% | viability, T/C (second compound 0.316 µM, first compound 0.00316 µM) 4.64% | viability, T/C (second compound 0.316 µM, first compound 0.01 µM) 1.64% | viability, T/C [7] 1.2% | viability, T/C [8] 0.9% | viability, T/C (second compound 1 µM, first compound 0.00316 µM) 5.1% | viability, T/C (second compound 1 µM, first compound 0.01 µM) 1.67% | viability, T/C [13] 1.15% | viability, T/C [14] 0.9% | viability, T/C (second compound 3.16 µM, first compound 0.00316 µM) 4.76% | viability, T/C (second compound 3.16 µM, first compound 0.01 µM) 1.62% | viability, T/C [19] 0.95% | viability, T/C [20] 1.19% | viability, T/C (second compound 10 µM, first compound 0.00316 µM) 3.46% | viability, T/C (second compound 10 µM, first compound 0.01 µM) 1.24% | viability, T/C [25] 0.47% | viability, T/C [26] 0.62%
inactive: viability, T/C (second compound 0.1 µM, first compound 0.000316 µM) 108% | viability, T/C (second compound 0.1 µM, first compound 0.001 µM) 40.2% | viability, T/C (second compound 0.316 µM, first compound 0.000316 µM) 114% | viability, T/C (second compound 0.316 µM, first compound 0.001 µM) 35.6% | viability, T/C (second compound 1 µM, first compound 0.000316 µM) 109% | viability, T/C (second compound 1 µM, first compound 0.001 µM) 36.1% | viability, T/C (second compound 3.16 µM, first compound 0.000316 µM) 115% | viability, T/C (second compound 3.16 µM, first compound 0.001 µM) 38.4% | viability, T/C (second compound 10 µM, first compound 0.000316 µM) 94.3% | viability, T/C (second compound 10 µM, first compound 0.001 µM) 22.8%
9.09: pIC50 (second compound 0.316 µM)
9.07: pIC50 (second compound 0.1 µM)

COc1ccc([C@@H](O)c2cc(-c3ncnc4cc(N5CCOCC5)ccc34)c(F)cc2Cl)nn1 + NC1CC1c1ccc(-c2cccc(O)c2)cc1
inactive: viability, T/C [1] 96.6% | viability, T/C [2] 88.1% | viability, T/C [3] 71.4% | viability, T/C [4] 42.1% | viability, T/C [5] 10.1% | viability, T/C [7] 104% | viability, T/C [8] 93.8% | viability, T/C [9] 87.7% | viability, T/C [10] 36.8% | viability, T/C [13] 106% | viability, T/C [14] 91.9% | viability, T/C [15] 75% | viability, T/C [16] 36.2% | viability, T/C [17] 7.37% | viability, T/C [19] 94.8% | viability, T/C [20] 83.5% | viability, T/C [21] 67.9% | viability, T/C [22] 32.1% | viability, T/C [25] 71.7% | viability, T/C [26] 62.7% | viability, T/C [27] 38.1% | viability, T/C [28] 21.9%
6.16: pIC50 (second compound 0.1 µM)
6.73: pIC50 (second compound 10 µM)
active: viability, T/C [6] 3.99% | viability, T/C [11] 8.34% | viability, T/C [12] 3.86% | viability, T/C [18] 4.08% | viability, T/C [23] 6.81% | viability, T/C [24] 4.07% | viability, T/C [29] 4.81% | viability, T/C [30] 3.46%
6.19: pIC50 (second compound 1 µM)
6.26: pIC50 (second compound 3.16 µM)
6.13: pIC50 (second compound 0.316 µM)
